In test [1] the test system is human prostate cancer cell line PC-3. The test can be described thus: cells. It counts as cell-based. Here is the method: Aziridinyl putrescine 1-(4-aminobutyl) aziridine was synthesized using the method as described by Piper, et al., J. Med. Chem. 12: 236-243 (1968). Cells of the human prostate cancer cell line PC-3 were used.
10^3 PC-3 human cells were plated in RPMI 1640 with 10% FCS/3 ml in 60 mm^2 petri dishes. The cell plates were incubated either with, or without difluoromethylornithine for 48 hours. This was followed by aspiration, and replacement with a medium containing either no additives, 50 uM 1-(4-aminobutyl) aziridine, 1 mM putrescine, or both 50 uM 1-(4-aminobutyl) aziridine and 1 mM putrescine. The media were aspirated after 1 hour, and replaced with a drug free medium. Incubation continued for 5 days.
*Represents mean number of colonies ± one standard deviation of
triplicate assay. Number in parenthesis is percent of control.

Test [2] has as its system PC-3 human prostatic carcinoma cell line. The test can be described thus: cells. It is filed as cell-based. Here is the method:
FIG. 3. Effect of AZP on the growth of PC-3 cells with or without DFMO pretreatment. PC-3 cells (3×10^4) were plated in 60-mm^2 Petri dish in RPMI 1640-10% FCS and allowed to attach overnight. The following day the medium was aspirated and replaced with RPMI 1640, 10% FCS, 100 μM aminoguanidine with or without 1 mm DFMO. Forty-eight h later the medium was aspirated, the dishes were rinsed once with HBSS, and the cells were incubated with RPMI 1640-10% FCS-100 μM aminoguanidine with or without 25 μM AZP for 1 h. Following the 1-h incubation the medium was aspirated, the plates were rinsed twice with HBSS, and the incubation was continued with fresh RPMI 1640-10% FCS-100 μM aminoguanidine. At the indicated times following initial plating the cells were lifted from the plate by trypsinization and were examined for their ability to exclude trypan blue. Total cell counts were obtained with the aid of a hemocytometer, and the completeness of the removal of the cells from the dish was verified by the examination of each dish with the inverted microscope. , control; Δ, DFMO; .circle., AZP; .quadrature., DFMO+AZP. Points, means; bars, SE.
FIG. 4. Dose-effect relationship of AZP on the growth on PC-3 prostatic cancer cells. PC-3 cells (3×10^4) were plated in RPMI 1640-10% FCS in 60-mm^2 Petri dishes and allowed to attach overnight. The following day the medium was aspirated and replaced with RPMI 1640-10% FCS-100 μM aminoguanidine with or without 1 mm DFMO. Forty-eight h later the medium was aspirated, and the cells were rinsed once with HBSS and replaced with RPMI 1640-10% FCS-100 μM aminoguanidine with or without the indicated μM concentrations of AZP. After a 1-h incubation the medium was aspirated, the cells were rinsed twice with HBSS, and the incubation was continued with fresh RPMI 1640-10% FCS-100 μM aminoguanidine. Eight days following plating the cells were lifted from the plates by trypsinization and were counted with the aid of a hemocytometer and expressed as a percentage of control (100% without DFMO, 212±31×10^4; 100% with DFMO pretreatment, 219±25× 10^4 cells, respectively). , DFMO pretreated; .circle., without DFMO.
Assays of cell growth were performed by plating 3×10^4 PC-3 cells in RPMI 1640 medium with 10% FCS and allowing them to attach overnight. The following morning the medium was replaced with incubation medium consisting of RPMI 1640, 10% FCS, 100 μM aminoguanidine, 100 units/ml of penicillin, 100 μg/ml of streptomycin, and 2 mM glutamine, with or without 1 mM difluoromethylornithine. Two days later the medium was aspirated and replaced with or without 1-(4-aminobutyl) aziridine at the designated concentration usually for 1 h or for the designated length of time. Following the 1-h incubation, the medium of all groups was aspirated and the dishes were rinsed with HBSS and replaced with fresh incubation medium. Either daily or 8 days following plating, the Petri dishes were rinsed with HBSS and the cells were lifted from the plate by trypsinization. The dishes were examined for completeness of cell removal by examination with an inverted microscope. The cells were counted with a Zeiss microscope using a hemocytometer. Tumor cell population doubling time was determined by ploting the natural logarithm (ln) of the number of cells versus the days following plating. The slope of this line was determined using the Memorial Sloan-Kettering Cancer Center Clin computer system statistical analysis package. Doubling time (DT) was determined as ln 2/slope=DT. Statistical differences in cell number between groups were determined by Student's t statistic with the aid of the Memorial Sloan-Kettering Cancer Center Clin computer using the statistics program.
^a Thirty thousand PC3 cells were plated in 60mm^2 Petri dishes i
RPMI 164010% FCS. The next day the medium was aspirated and replaced with
RPMI 164010% FCS medium with 100 μM aminoguanidine with or without 1 m
DFMO. Fortyeight h later the medium was aspirated. […]

The subject of test [3] is PC-3 cells. The test can be described thus: Polyamine assays: intracellular polyamine levels by HPLC. It is filed as cell-based, human. Particulars: PC-3, ±1 mM DFMO 48 h, then ±25 μM AZP 1 h. Here is the method:
One h later the medium was aspirated and the cells were rinsed with cold HBSS. Three plates were treated with dilute trypsin to release the cells from the plate and provide a single cell suspension. The viability of the cells and the number of cells per plate were determined by trypan blue exclusion and counting with the aid of a hemocytometer. […] The other three plates were extracted with 0.4N perchloric acid and the polyamines were measured by fluorescence following postcolumn derivatization with o-phthalaldehyde following separation by the reverse phase ion-pair high performance liquid chromatography procedure of Wagner et al., J. Chomatogr., 227: 349-368, 1982.
In Table 2 are listed the values for the triplicate assays of the concentrations of polyamine observed in nontreated cells, cells treated with 1-(4-aminobutyl) aziridine for 1 h, cells pretreated for 48 h with 1 mM difluoromethylornithine and then incubated in drug free medium for 1 h, or cells pretreated for 48 h with difluoromethylornithine, rinsed free of difluoromethylornithine, and then incubated with 25 μM 1-(4-aminobutyl)aziridine for 1 h. All groups had cell viabilities greater than 95% and cell numbers were 4.9±0.6 (SE), 4.9±0.7, 4.8±0.4, and 4.6±0.4×10^6 cells for the control, 1-(4-aminobutyl) aziridine, difluoromethylornithine, and difluoromethylornithine+1-(4-aminobutyl) aziridine groups, respectively. The apparent amount of 1-(4-aminobutyl) aziridine in the difluoromethylornithine-treated cells was 3.7 times that of the 1-(4-aminobutyl) aziridine-only-treated cells. No N^8 -acetylspermidine, acetylputrescine, or cadaverine was detected in any group. A peak was detected at a wavelength of 254 nm in the difluoromethylornithine treatment groups that corresponds to the retention time of decarboxylated S-adenosylmethionine.
^a PC-3 cells were incubated with or without 1 mM DFMO for 48 h. Cell
were then rinsed free of DFMO and incubated for 1 h with 25 μM AZP. Th
cells were washed free of AZP by three rinses of HBSS. With one set of
triplicate plates, the cells were resuspended and counted by hemocytomete
and viability was determined by trypan dye exclusion (viability > 95%).
Another set triplicate plates was extracted with icecold perchloric acid
and filtered and the polyamine concentrations were determined by HPLC.
^b Mean ± SE for a triplicate assay. Histamine is included as a […]

For test [4], the system named is normal rat prostate. The test can be described thus: In vivo antiprostatic activity, prostate wet weight. Particulars: Copenhagen rats, 14 days; AZP 2 mg/kg/day by intraperitoneal infusion mini-pump, DFMO similar amount orally. Here is the method:
1-(4-aminobutyl) aziridine, difluoromethylornithine, and a combination of 1-(4-aminobutyl) aziridine and difluoromethylornithine were tested in vivo for antiprostatic activity using Copenhagen rats. The normal rat prostate is often used as a model or control for drugs which are suspected of having antiprostatic cancer activity. Sloan, et al., Cancer Chemother. Rep. 59: 185-194 (1975). 1-(4-aminobutyl) aziridine, difluoromethylornithine, and a combination of 1-(4-aminobutyl) aziridine and difluoromethylornithine were administered to twenty-eight (28) Copenhagen rats for 14 days. 1-(4-aminobutyl) aziridine was administered by an infusion mini-pump implanted intraperitoneally.
Difluoromethylornithine was administered orally. The 1-(4-aminobutyl) aziridine was delivered at a rate of 2 mg/kg/day. A similar amount of difluoromethylornithine was administered orally on a daily basis. Before loading the infusion pump, the pH of 1-(4-aminobutyl) aziridine was adjusted to 7.5 with hydrochloric acid. The pump rate was 0.5 u./hr.
The prostates of the twenty-eight (28) subjects were removed, freed of fat and weighed to the nearest milligram.

The subject of test [5] is uptake of [14C]putrescine into PC-3 cells. It is filed as cell-based, human. Here is the method:
FIG. 1. Lineweaver-Burk plot of the uptake of [^14 C]putrescine by DFMO-pretreated cells. The ordinate is expressed as 1/pmol/15 min. The abscissa is expressed as 1 μM concentrations containing from 16 to 1.0 μM [^14 C]putrescine.
Fifty thousand PC-3 cells were plated in 12-well plates and 18 h later the incubation medium was removed and replaced with 1 ml or RPMI 1640 medium containing 25 mM 4-(2-hydroxyethyl)-1-piperazineethansulfonic acid buffer, 100 μM aminoguanidine, and 10% FCS. Forty-eight h later the medium was replaced with medium which contained [^14 C]putrescine in concentrations ranging from 16 to 1.0 μM with or without 5 1M 1-(4-aminobutyl) aziridine. Following incubation at 37° C. for 15 min the [^14 C]putrescine-containing medium was aspirated, and the cells were rinsed rapidly 4 times with HBSS. Following the last rinse, 1.0 ml of a solution of 0.1N NaOH was added and after a 2-h incubation at room temperature a 0.2-ml aliquot was added to 1 ml of 2% glacial acidic acid and 10 ml of Scintiverse 1 scintillation cocktail and the radioactive disintegrations were determined with a Packard Tri-Carb 300 scintillation spectrophotometer. Counting efficiency for ^14 C was 80%. Kinetic analysis of uptake was performed by graphic methods as described by Dixon and Webb, Enzymes, p. 322, New York Academic Press (1959).
In FIG. 1 a Lineweaver-Burk plot of the uptake of [^14 C]-putrescine into the PC-3 cells is presented and was used to determine the Km (intercept x axis) and Vmax (intercept y axis) for putrescine.

The mark [6] stands for this setting: PC-3, 48 h with or without DFMO, then 1 h with 50 uM AZP and/or 1 mM putrescine, 5 days drug free.

Read-outs that look alike come from different tables or passages of the source.

Experimental findings from patent publication US4925835A, “Aziridinyl putrescine containing compositions and their uses in treating prostate cancer” (priority 1987, dated 1990) are described below.

Consider `NCCCC(N)(C(=O)O)C(F)F` (stereo not shown) [DFMO, difluoromethylornithine, reference compound], for which the “Inhibition of proliferation of human prostate cancer cells in culture” value in test [1] (AZP at 50 uM, from Table 1) is recorded as “little effect”. Besides, in test [1] (setting [6]), the “Clonogenic survivors (mean number of colonies ± one standard deviation)” value is 549 ± 57 colonies and the “Clonogenic survivors, percent of control” value turned out to be 94%. Besides, the “Cells per dish on day 8 following plating” value in test [2] (PC-3, 3×10^4 plated, ±1 mM DFMO 48 h, ±25 μM AZP 1 h, mean±SD of triplicates) is 340±54 ×10^4 cells per dish. Moreover, the Doubling time in test [2] (PC-3, 25 μM AZP 1 h or 1 mM DFMO 48 h, mean±SE) worked out at 1.14 ± 0.05 days. The “Cell numbers at end of treatment” value in test [3] (SE) is 4.8±0.4 ×10^6 cells. Further, in test [3] (mean ± SE), the “Polyamine levels: Hist (histamine, nonpolyamine control)” value stood at 98 ± 26 pmol/10^6; the “Polyamine levels: NaSpm (N-acetylspermine)” value came to 130 ± 10 pmol/10^6; the “Polyamine levels: PUT (putrescine)” value came out at 192 ± 34 pmol/10^6; the “Polyamine levels: Spd (spermidine)” value stood at 171 ± 66 pmol/10^6. The “Polyamine levels: Spm (spermine)” value in test [3] (mean ± SE) was 3046 ± 554 pmol/10^6. Further, in test [4], the “Dorsal Lateral Prostate, milligram wet weight (SEM)” value was 445 ± 32 milligram and the “Ventral Prostate, milligram wet weight (SEM)” value was found to be 377 ± 16 milligram.
As for `NCCCCN` [PUT, 1,4-butanediamine, reference compound], in test [2], the Cell no. is recorded as 438 ± 16 × 10^-4 and the “Growth-inhibitory activity toward PC-3 cells (in words)” value is on record as “no growth-inhibitory activity”. The “Cell no. as a percentage of control” value in test [2] (pc-3 cells, 11520 min) amounted to 106%. For the same compound, in test [5], the Km was found to be 2.5 µM and the “Vmax of putrescine uptake” value amounted to 190 pmol/15 min/10^5 cells. The “Vmax of putrescine uptake” value in test [5] (PC-3 cells, without difluoromethylornithine pretreatment) is 40 pmol/15 min/10^5 cells.
